Like-named read-outs stand apart in the source and are kept apart here.
System: hMSC-TERT
Conditions: 6 days after induction, hMSC-TERT
[1] = 1 μM inhibitor in osteogenic inducing media
[2] = 10 μM inhibitor in osteogenic inducing media

Row | SMILES | Relative ALP activity [1] | Relative ALP activity [2]
1 | CCCCCCCCCCCCCCCC(=O)OC(CC(=O)O)C[N+](C)(C)C.[Cl-] (racemic) [Palmitoyl-DL-carnitine Cl] | 0.9966 | 0.9612
2 | Nc1ncc2[nH]cnc2n1 [2-Aminopurine] | 1.017 | 0.6855
3 | Nc1ncnc2c1c(I)cn2[C@@H]1O[C@H](CO)[C@@H](O)[C@H]1O [5-Iodotubercidin] | 1.035 | Toxic
4 | N#CC(C#N)=Cc1ccc([N+](=O)[O-])c(O)c1 [AG-126] | 0.9053 | 1.156
5 | N#CC(=Cc1ccc2[nH]ccc2c1)C(N)=C(C#N)C#N [AG-370] | 1.057 | 0.7902
6 | N#C/C(=C/c1ccc(O)c(O)c1)C(=O)NCc1ccccc1 [AG-490] | 0.9657 | 0.3482
7 | N#C/C(=C\c1ccc(O)c(O)c1)C(=O)Nc1ccccc1 [AG-494] | 0.8788 | 0.33
8 | COc1cc(/C=C(\C#N)C(N)=O)cc(CSc2nc3ccccc3s2)c1O [AG-825] | 0.8754 | 1.056
9 | CC(C)(C)c1cc(/C=C(\C#N)C(N)=S)cc(C(C)(C)C)c1O [AG-879] | 0.6801 | 0.7467
10 | COc1cc2ncc(-c3ccccc3)nc2cc1OC [AG-1296] | 0.7685 | 0.5376
11 | O=c1cc(-c2ccc(O)cc2)oc2cc(O)cc(O)c12 [Apigenin] | 0.9029 | 0.4027
12 | Cc1ccc(S(=O)(=O)/C=C/C#N)cc1 [BAY 11-7082] | 0.9356 | Toxic
13 | O=C(O)c1ccc2nc(-c3ccccc3)c(-c3ccccc3)nc2c1 [BML-257] | 0.8443 | 0.7884
14 | CC(C)c1cnc(NC(=O)Cc2ccccc2)s1 [BML-259] | 1.001 | 0.7259
15 | OC[C@H]1O[C@@H](n2cnc3cc(Cl)c(Cl)cc32)[C@H](O)[C@@H]1O [DRB] | 0.9718 | 0.5043
16 | O=c1c(-c2ccc(O)cc2)coc2cc(O)ccc12 [Daidzein] | 1.14 | 1.025
17 | COc1c(C=O)c(O)cc2c1C(=O)c1ccccc1C2=O [Damnacanthal] | 0.8711 | 0.3273
18 | COC(=O)/C=C/c1cc(O)ccc1O [Erbstatin analog] | 0.8892 | 0.7022
19 | CN(C)CCCn1cc(C2=C(c3c[nH]c4ccccc34)C(=O)NC2=O)c2ccccc21 [GF 109203X] | 0.3532 | Toxic
20 | O=C1Nc2ccc(I)cc2/C1=C/c1cc(Br)c(O)c(Br)c1 [GW 5074] | 0.7969 | 0.5773
21 | O=c1c(-c2ccc(O)cc2)coc2cc(O)cc(O)c12 [Genistein] | 1.215 | 0.7692
22 | CC1CNCCN1S(=O)(=O)c1cccc2cnccc12 (centres unmarked) [H-7] | 1.087 | 0.9015
23 | NCCNS(=O)(=O)c1cccc2cnccc12 [H-9] | 0.9547 | 0.9783
24 | O=S(=O)(NCCNC/C=C/c1ccc(Br)cc1)c1cccc2cnccc12 [H-89] | 0.8924 | 0.3847
25 | NC(N)=NCCNS(=O)(=O)c1cccc2cnccc12 [HA-1004] | 0.9706 | 0.9424
26 | O=S(=O)(c1cccc2cnccc12)N1CCCNCC1 [HA-1077] | 1.02 | 0.908
27 | COCc1cc(O)c(O)c(O)c1-c1c(COC)cc(O)c(O)c1O [HBDDE] | 0.8861 | 0.7296
28 | O=C(O)c1cc(NCc2cc(O)ccc2O)ccc1O [HDBA] | 0.8708 | 0.9836
